System: Mouse cortical neurons (Lonza)
Assay: Gene expression array and pathway analysis, cortical neurons
Assay type: cell-based
Conditions: 0.01 mg/ml, 48 h
Protocol: For each cell line, n=8×25 cm^2 culture flasks were set up. Two flasks were harvested for each cell type on the day of treatment (24 hours after seeding). This represents the Day0 time point. From the remaining flasks, three flasks were treated with Control Medium and three were treated with Culture Medium (CM) containing LMW-DS to give a final concentration of 0.01 mg/ml. Cells from the treated flasks were collected after 48 hours. Therefore the collected data represent (a) untreated cells (Day0 Controls and Day2 Controls) and (b) cells treated with LMW-DS for 48 hours (Day2 LMW-DS treated).
25 cm^2 flasks were coated by adding 2 ml per flask of a solution of 50 μg/ml poly-d-lysine in Hank's balanced salt solution (HBSS) and incubating overnight at 37° C. in the dark. Flasks were washed with cell culture water and air-dried for 30 min in the dark. Flasks were coated by adding 1 ml per flask of a solution of 25 μg/ml laminin in phosphate-buffered saline (PBS) and incubating for 2 hour at 37° C. in the dark. The laminin flasks were washed with PBS three times before plating cells.
Medium was prepared by adding 10 ml B-27 Serum-Free Supplement and 2.5 ml GlutaMAX™-1 Supplement to 500 ml of Neurobasal medium. The medium was pre-warmed to 37° C. Cells from 12 vials were thawed sequentially in a 37° C. water bath for no longer than 2 min and gently transferred into a 15 ml tube. 9 ml of medium was gently added drop-wise to each. The cell suspension was mixed by inverting the tubes carefully twice.
The cells were centrifuged for 5 minutes at 200×g. Supernatant was removed (to the last 0.5 ml) and cells were gently resuspended by trituration. The cells from the 12 vials were mixed and distributed equally into the previously coated 25 cm^2 flasks (n=8). Cells were incubated at 37° C. with 5% CO2 for 24 hours.
LMW-DS was provided at a stock concentration of 20 mg/ml and was kept in a temperature monitored refrigerator at 4° C. A fresh […]LMW-DS stock (1.0 mg/ml) was prepared in sterile DMEM-F12. The concentrated drug stock was sterile filtered and added to the respective culture media (19.6 ml CM and 0.4 ml LMW-DS stock solution). The Control was made using 19.6 ml CM and 0.4 ml of DMEM-F12. LMW-DS and CM were added to the respective flasks (5 ml each) to reach the 0.01 mg/ml concentration of LMW-DS in each dish with a total of 10 ml CM each.
CM was aspirated into a clean and labelled 15 ml Falcon tube. The flasks (without culture medium) were placed into the −80° C. freezer for 30 minutes. The CM in the Falcon tubes were spun at 3000×g for 5 minutes. Supernatant was removed and the small pellet was re-suspended in 2.5 ml Trizol:Water (4:1) solution at room temperature (RT, […]).
Two aliquots of 1 ml lysate was removed from each sample and 200 μl of chloroform was added to each (0.2 ml of chloroform per 1 ml of TRIzol Reagent used during the cell lysis step) and the tube was shaken vigorously. Samples were stored at RT for 2-3 minutes and subsequently centrifuged at 12,000×g for 15 minutes at 4° C.
The expression data were downloaded into separate files for each cell line. The ‘Background corrected’ expression is the data from the “gProcessedSignal” of the arrays that is the result of the background signal extracted from the actual signal of the relevant probe. This is the most often used variable in array analysis. The background corrected signal was log 2 transformed for all samples for statistical analysis. To reduce the false discovery rate in the samples, the signals that were below ‘expression level’ were removed. The ‘below expression’ level was set at 5 for the log 2 transformed expression values.
Based on the expression pattern of the Control probes on each array it was decided to carry out Median Centering for all arrays before analysis to reduce the variability of the results. […]

Q: Which “MMP-related genes differentially expressed” value does the source give for “low molecular weight dextran sulfate [LMW-DS]” here?
A: none

Q: And the “cellular attachment from expression patterns (neurons)” value?
A: significant inhibition of cellular attachment

Q: And the “downstream effector molecules of GDF7” value?
A: activated

Q: And the glutamate production?
A: dis not alter

Q: What about the “number of genes differentially expressed, D0 control to the D2 LMW-DS treated samples (second statement)” value of the same substance?
A: 247 genes

Q: And the “number of genes differentially expressed, D0 control vs D2 LMW-DS treated” value?
A: 609 genes

Q: And the “number of genes: abolished nutrient effect / no effect” value?
A: 572

Q: And the “number of genes: abolished nutrient effect / significant downregulation” value?
A: 7

Q: And the “number of genes: abolished nutrient effect / significant upregulation” value?
A: 33

Q: And the “number of genes: abolished nutrient effect / total” value?
A: 612

Q: What about the “number of genes: enhanced response to nutrients / significant downregulation” value of the same substance?
A: 158

Q: What about the “number of genes: enhanced response to nutrients / significant upregulation” value of the same substance?
A: 43

Q: What about the “number of genes: enhanced response to nutrients / total” value of the same substance?
A: 612

Q: And the “number of genes: new effect induced by LMW-DS / no effect” value?
A: 19

Q: What about the “number of genes: new effect induced by LMW-DS / significant downregulation” value of the same substance?
A: 22

Q: What about the “number of genes: new effect induced by LMW-DS / significant upregulation” value of the same substance?
A: 7

Q: And the “number of genes: new effect induced by LMW-DS / total” value?
A: 48

Q: And the “number of genes: not different from control / significant downregulation” value?
A: 95

Q: What about the “number of genes: not different from control / significant upregulation” value of the same substance?
A: 221

Q: And the “number of genes: not different from control / total” value?
A: 316

Q: And the “number of genes: total / no effect” value?
A: 591

Q: And the “number of genes: total / significant downregulation” value?
A: 282

Q: What about the “number of genes: total / significant upregulation” value of the same substance?
A: 304

Q: What about the “number of genes: total / total” value of the same substance?
A: 1177

Q: And the “oxidative-stress effects: amyloid-β and Lewy body pathology, mitochondrial dysfunction” value?
A: able to prevent and reverse most of these deleterious effects

Source: patent US11534457B2, “Use of dextran sulfate” (priority 2017, dated 2022)
